The values below come from patent US20210046125A1, “DECELLULARIZED TISSUES, HYDROGELS THEREOF, AND USES THEREOF” (UNIVERSITY OF FLORIDA RESEARCH FOUNDATION, priority 2018, published 2021).

For experiment [1], the system named is peripheral nerve tissue. The experiment can be described thus: Picogreen DNA assay, total DNA content of apoptosis-decellularized peripheral nerve. Further details: species or system Sprague Dawley rats. How it is done: Peripheral nerves were harvested from Sprague Dawley rats and decellularized according to an apoptosis-assisted protocol using 5 μM camptothecin in non-supplemented media at 37° C. for 1 day. Tissue in media without camptothecin, an apoptotic agent, was used as a control. Apoptotic agent treatment was succeeded by washes in saline buffered solutions to optimize cell removal. Furthermore, the tissue was treated with 75 u/mL DNAse for 24 hours to ensure DNA removal. The degree of apoptosis, cellular removal, and matrix preservation was assessed using immunochemistry on nerve tissue sections and fluorescence imaging (FIG. 2). Antibodies used to identify apoptosis, cell removal, and tissue preservation include those against active caspase 3 (Abcam); neurofilament (RT-97, DSHB) and 5100 (Dako); and laminin (Sigma), respectively. […] FIGS. 2B and 2C show nerves treated with 5 μM for 1 day, washed with a hypertonic, and either washed with a […] or treated for 24 hours with DNAse, respectively. […] FIGS. 2E and 2F show treatment with higher camptothecin (10 μM), again for 1 day, and washed similarly to tissue in FIGS. 2B and 2C. These images depict 1) apoptosis induction is necessary prior to washing to effectively remove cellular components and 2) combing apoptosis induction with washes in non-isotonic solutions achieves cellular removal of peripheral nerve tissue. Total DNA content was quantified using a Picogreen DNA assay (Life Technologies) according to manufacturer's instructions.

Experiment [2] relates to peripheral nerve tissue. The experiment can be described thus: Induction of apoptosis ex vivo (active caspase 3 immunochemistry, TUNEL). Further details: species or system Sprague Dawley rats. The note with it: 10 μM camptothecin, 37° C., 2 days. How it is done: Peripheral nerves were harvested from Sprague Dawley rats and decellularized according to an apoptosis-assisted protocol using 10 μM camptothecin in non-supplemented media at 37° C. for 2 days. Tissue in media without camptothecin was used as a control. Apoptotic agent treatment was succeeded by washes in saline buffered solutions to optimize cell removal. The degree of apoptosis, cellular removal, and matrix preservation was assessed using immunochemistry on nerve tissue sections and fluorescence imaging. Antibodies used to identify apoptosis, cell removal, and tissue preservation include those against active caspase 3 (Abcam); neurofilament (RT-97, DSHB) and 5100 (Dako); and laminin (Sigma), respectively, Apoptosis-mediated DNA fragmentation was assessed using a terminal deoxynucleotidyl transferase dUTP nick end labeling (TUNEL) assay. Total DNA content was quantified using a Picogreen DNA assay (Life Technologies) according to manufacturer's instructions. […] For FIGS. 5A and 5B, the images are fresh nerve (top half) and apoptosis decellularized nerve (bottom half). FIG. 5A was labeled for neurons (neurofilament, green), Schwann cells (S100, red), and nuclei (DAPI, blue). […] Induction of apoptosis was confirmed in treated nerve tissue by an increase in active caspase 3, an early mediator of apoptosis. […]

Experiment [3] concerns rat sciatic nerve. The experiment can be described thus: QuantiFluor dsDNA assay, residual DNA content in tissue. The following applies: apoptosis decellularization, QuantiFluor dsDNA kit. An excerpt: (§1) Briefly, the injectable tissue hydrogels of this Example were generated by digesting rat sciatic nerves that had been decellularized by inducing cell […] (or apoptosis). Apoptosis can cause cells to form small apoptotic bodies containing cellular components, which can be more easily removed from the matrix. This approach has the potential to enhance matrix preservation and bioactivity, thus having a major impact on tissue engineering. In this Example, rat sciatic nerves were first harvested and decellularized by inducing apoptosis (described elsewhere herein and e,g. FIG. 11). Washing in camptothecin can induce apoptosis. Hypertonic washing (e,g. 4× PBS) can aid in cell removal. DNase treatment can degrade residual DNA content. Treatment with Chondroitinase ABC can be used to remove inhibitory proteoglycans. After the decellularization process, the resulting decellularized tissue can undergo enzymatic processing and further processing to balance pH where necessary. In some cases the decellularized tissue can be lyophilized prior to enzymatic digestion. In this particular example, pepsin was used to digest tissue at an acidic pH. After about […] of enzymatic digestion, the solution can be neutralized and isotonically balanced. The solution was further diluted with PBS. In some embodiments, the solution was diluted to 1/9 th of its volume in 10× PBS. […]

Experiment [4] has as its system rat sciatic nerve. Briefly: TUNEL assay, preliminary studies. The following applies: samples treated with camptothecin.
From the text: as §1

Consider `CC[C@@]1(O)C(=O)OCc2c1cc1n(c2=O)Cc2cc3ccccc3nc2-1` [camptothecin], for which the “reduction in DNA compared to fresh nerve” value in the experiment on peripheral nerve tissue [1] (5 μM camptothecin 1 day, hypertonic then hypotonic wash) is listed as 71.9%; in the experiment on peripheral nerve tissue [1] (5 μM camptothecin 1 day, hypotonic wash replaced with DNAse treatment), 95.1%; with peripheral nerve tissue [1] (10 μM camptothecin 1 day, hypertonic then hypotonic wash), 57.3%; with peripheral nerve tissue [1] (10 μM camptothecin 1 day, hypotonic wash replaced with DNAse treatment), 95.8%. Further, the “apoptosis ex vivo (caspase 3 activation and DNA fragmentation)” value in the experiment on peripheral nerve tissue [2] is “sufficient to elicit aspects of apoptosis ex vivo”. Also, the DNA removal result in the experiment on rat sciatic nerve [3] is listed as “greater than 90%”. The “apoptosis by TUNEL assay” value in the experiment on rat sciatic nerve [4] is given as “enhanced apoptosis”.
